Laboratory results reported in PubChem BioAssay AID1259246 (Broad Institute, 2017).
Results filed as inconclusive are left out. Calls of active or inactive are those of the source.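 Rule for the calls: active = valid dose-response fit whose half-maximal growth-inhibiting concentration is at or below a set limit above the top tested dose; inconclusive = flat fit with effect between 30 and 70%, or poor fit; inactive = half-maximal concentration above a set limit.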

Assay: antibacterial activity against Clostridioides difficile – 10-point retest, dose response (AID 1259246)
Details: Clostridioides difficile clinical isolate growth, OD600, 24 h; at 60 µM (top of the series)
With `COC(=O)[C@@H]1[C@@H](CO)[C@@H]2Cn3c(ccc(-c4cccc(F)c4)c3=O)[C@@H]2N1C(C)=O` the activity change, negative = inhibition was 9.82% (inactive).
In the case of `C[C@@H]1CN([C@@H](C)CO)S(=O)(=O)c2ccc(/C=C/c3ccccc3)cc2O[C@H]1CN(C)Cc1ccccc1`, the activity change, negative = inhibition is reported as 2.6% (inactive).
In the case of `C[C@@H]1CN([C@H](C)CO)C(=O)Cc2cc(NC(=O)CCCN(C)C)ccc2O[C@@H]1CN(C)Cc1ccc(-c2ccccc2)cc1`, the activity change, negative = inhibition is reported as 28.6% (inactive).
With `CO[C@H]1CN(C)C(=O)c2ccc(NC(=O)c3ccc(-c4ccccc4)cc3)cc2OC[C@@H](C)NC[C@@H]1C` the activity change, negative = inhibition was 12.9% (inactive).
For `CCCNC(=O)C[C@@H]1CC[C@H]2[C@H](COc3ccc(NC(=O)c4cccc(Cl)c4)cc3C(=O)N2C)O1`, the activity change, negative = inhibition was 10.3% (inactive).
For `COCC#Cc1ccc2c(c1)O[C@H](CN(C)Cc1ccc3c(c1)OCO3)[C@H](C)CN([C@H](C)CO)S2(=O)=O`, the activity change, negative = inhibition was 10.3% (inactive).

Same assay, conditions: Clostridioides difficile clinical isolate growth, OD600, 24 h; at 120 µM (top of the series)
With `C[C@H](CO)N1C[C@H](C)[C@@H](CN(C)C(=O)NC2CCCCC2)Oc2c(NC(=O)Nc3cccc4ccccc34)cccc2C1=O` the activity change, negative = inhibition was 23.7% (inactive).
In the case of `C[C@H](CO)N1C[C@H](C)[C@@H](CN(C)Cc2cccnc2)Oc2cc(Br)ccc2S1(=O)=O`, the activity change, negative = inhibition is reported as -1.18% (inactive).
For `CC1=CC2(CO)C(=O)[C@]3(CO3)[C@H]1[C@H]1[C@]2(C)C=C(CO)C(=O)[C@]12CO2`, the activity change, negative = inhibition was 10.8% (inactive).
For `C[C@H]1CN([C@@H](C)CO)S(=O)(=O)c2ccc(C3=CCCCC3)cc2O[C@@H]1CN(C)Cc1cccnc1`, the activity change, negative = inhibition was 13.2% (inactive).
In the case of `C[C@@H]1CN([C@@H](C)CO)C(=O)Cc2cc(NC(=O)C3CC3)ccc2O[C@@H]1CN(C)Cc1ccc(-c2ccccc2)cc1`, the activity change, negative = inhibition is reported as 20.7% (inactive).
In the case of `C[C@H]1CN([C@@H](C)CO)S(=O)(=O)c2ccc(C#CC3CCCCC3)cc2O[C@H]1CN(C)Cc1cccnc1`, the activity change, negative = inhibition is reported as 19.1% (inactive).
With `CO[C@H]1CN(C)C(=O)c2ccc(NC(=O)c3nc4ccccc4s3)cc2OC[C@@H](C)N(Cc2ccncc2)C[C@H]1C` the activity change, negative = inhibition was 20.7% (inactive).
For `C[C@@H]1CN([C@H](C)CO)S(=O)(=O)c2ccc(C#Cc3ccccc3F)cc2O[C@@H]1CN(C)CC1CCOCC1`, the activity change, negative = inhibition was 19.4% (inactive).
For `CO[C@@H]1CN(C)C(=O)c2ccc(NC(=O)c3nc4ccccc4s3)cc2OC[C@H](C)N(Cc2ccncc2)C[C@@H]1C`, the activity change, negative = inhibition was 10.8% (inactive).
For `C/C=C/c1ccc2c(c1)O[C@H](CN(C)Cc1ccc(F)cc1)[C@H](C)CN([C@@H](C)CO)S2(=O)=O`, the activity change, negative = inhibition was 7.75% (inactive).
With `CNC[C@@H]1Oc2cc(-c3ccc(C)cc3)ccc2S(=O)(=O)N([C@@H](C)CO)C[C@H]1C` the activity change, negative = inhibition was 10.7% (inactive).
For `C[C@@H]1CN([C@@H](C)CO)C(=O)Cc2cc(NC(=O)CCCN(C)C)ccc2O[C@H]1CN(C)Cc1ccncc1`, the activity change, negative = inhibition was -4.05% (inactive).
In the case of `CC(C)CC#Cc1ccc2c(c1)O[C@@H](CN(C)Cc1cccnc1)[C@H](C)CN([C@@H](C)CO)S2(=O)=O`, the activity change, negative = inhibition is reported as 29.9% (inactive).
For `CO[C@H]1CN(C)C(=O)c2cc(NC(=O)Nc3ccc4c(c3)OCO4)ccc2OC[C@H](C)NC[C@H]1C`, the activity change, negative = inhibition was -6.51% (inactive).
With `Cc1ccc(S(=O)(=O)N2C[C@@H](O)COC[C@H]3O[C@H](CC(=O)NCc4ccccc4Cl)CC[C@@H]32)cc1` the activity change, negative = inhibition was 13.4% (inactive).
With `C[C@@H]1CN([C@H](C)CO)S(=O)(=O)c2ccc(C#CCN(C)C)cc2O[C@@H]1CN(C)Cc1ccc(F)cc1` the activity change, negative = inhibition was 0.874% (inactive).
For `CC(C)CC#Cc1ccc2c(c1)O[C@H](CN(C)Cc1ccccc1F)[C@H](C)CN([C@H](C)CO)S2(=O)=O`, the activity change, negative = inhibition was 21.7% (inactive).
In the case of `CO[C@@H]1CN(C)C(=O)c2cc(NC(=O)c3nc4ccccc4s3)ccc2OC[C@H](C)N(Cc2ccncc2)C[C@@H]1C`, the activity change, negative = inhibition is reported as 13.2% (inactive).
With `COc1ccc(CN(C)C[C@@H]2OCCCC[C@@H](C)Oc3ccc(NC(=O)Nc4cccc5ccccc45)cc3C(=O)N([C@H](C)CO)C[C@H]2C)cc1` the activity change, negative = inhibition was 44.3% (inactive).
In the case of `C[C@H]1CN([C@@H](C)CO)C(=O)Cc2cc(NC(=O)CCCN(C)C)ccc2O[C@@H]1CN(C)Cc1ccc(Oc2ccccc2)cc1`, the activity change, negative = inhibition is reported as 32.2% (inactive).
In the case of `C[C@@H]1CN([C@H](C)CO)C(=O)Cc2cc(NC(=O)CCCN(C)C)ccc2O[C@H]1CN(C)Cc1ccc(Oc2ccccc2)cc1`, the activity change, negative = inhibition is reported as 17.1% (inactive).
In the case of `O=C(O)C[C@H]1C[C@@H]2c3cc(NC(=O)NC4CCCC4)ccc3O[C@@H]2[C@@H](CO)O1`, the activity change, negative = inhibition is reported as 2.6% (inactive).
In the case of `COc1ccc(-c2ccc([C@H]3[C@H](C#N)N[C@H]3CO)cc2)cc1`, the activity change, negative = inhibition is reported as -2.73% (inactive).
In the case of `C[C@@H]1CN([C@H](C)CO)C(=O)c2cc(NC(=O)Nc3ccc(F)cc3)ccc2O[C@@H](C)CCCCO[C@H]1CN(C)C(=O)c1ccccc1`, the activity change, negative = inhibition is reported as 41% (inactive).
In the case of `C[C@@H]1CN([C@@H](C)CO)C(=O)Cc2cc(NC(=O)C3CC3)ccc2O[C@H]1CN(C)Cc1ccc(-c2ccccc2)cc1`, the activity change, negative = inhibition is reported as 25% (inactive).
For `C[C@@H]1CN([C@H](C)CO)S(=O)(=O)c2ccc(Br)cc2O[C@H]1CN(C)Cc1cccnc1`, the activity change, negative = inhibition was 0.001% (inactive).
With `C[C@@H]1CN([C@H](C)CO)C(=O)Cc2cc(N(C)C)ccc2O[C@@H]1CN(C)Cc1ccc(-c2ccccc2)cc1` the activity change, negative = inhibition was 22.5% (inactive).
For `CNC[C@H]1Oc2cc(Br)ccc2S(=O)(=O)N([C@H](C)CO)C[C@@H]1C`, the activity change, negative = inhibition was 6.99% (inactive).

Same assay, conditions: Clostridioides difficile clinical isolate growth, OD600, 24 h; at 135 µM (top of the series)
With `O=C(N[C@H]1CC[C@H](CCNS(=O)(=O)Cc2ccccc2)O[C@H]1CO)c1ccccc1F` the activity change, negative = inhibition was -3.44% (inactive).
For `C[C@@H]1CN([C@H](C)CO)C(=O)Cc2cc(NC(=O)C3CC3)ccc2O[C@@H]1CN(C)Cc1ccc(-c2ccccc2)cc1`, the activity change, negative = inhibition was 20.9% (inactive).
In the case of `C[C@@H]1CN([C@@H](C)CO)C(=O)Cc2cc(NS(C)(=O)=O)ccc2O[C@@H]1CN(C)Cc1ccc(Oc2ccccc2)cc1`, the activity change, negative = inhibition is reported as 7.12% (inactive).
For `C[C@H]1CN([C@@H](C)CO)C(=O)Cc2cc(NC(=O)CCCN(C)C)ccc2O[C@@H]1CN(C)Cc1ccc(-c2ccccc2)cc1`, the activity change, negative = inhibition was -3.4% (inactive).
With `C[C@@H]1CN([C@H](C)CO)C(=O)c2cccc(NC(=O)Nc3ccc4c(c3)OCO4)c2O[C@@H]1CN(C)Cc1ccc(-c2ccccc2)cc1` the activity change, negative = inhibition was 12.1% (inactive).
In the case of `C[C@@H]1CN([C@H](C)CO)C(=O)c2cc(NC(=O)Nc3cccc4ccccc34)ccc2O[C@@H](C)CCCCO[C@H]1CN(C)S(=O)(=O)c1cn(C)cn1`, the activity change, negative = inhibition is reported as 33.1% (inactive).
With `C[C@@H]1CN([C@H](C)CO)C(=O)Cc2cc(NC(=O)Nc3ccccc3)ccc2O[C@@H]1CN(C)Cc1ccc(-c2ccccc2)cc1` the activity change, negative = inhibition was 12.7% (inactive).
With `C[C@@H]1CN([C@@H](C)CO)C(=O)Cc2cc(NC(=O)C3CC3)ccc2O[C@H]1CN(C)Cc1ccc(Oc2ccccc2)cc1` the activity change, negative = inhibition was 48% (inactive).
In the case of `O=C(C[C@H]1C[C@@H]2c3cc(NC(=O)Nc4ccccc4)ccc3O[C@@H]2[C@H](CO)O1)NC1CCCC1`, the activity change, negative = inhibition is reported as -0.545% (inactive).
For `COc1ccc(-c2ccc([C@H]3[C@H](C#N)N(C(=O)C4CC4)[C@H]3CO)cc2)cc1`, the activity change, negative = inhibition was -0.086% (inactive).
